Target: T1, human CRHR2-alpha (Homo sapiens, UniProt Q13324)
T1 sequence (Q13324 1-411): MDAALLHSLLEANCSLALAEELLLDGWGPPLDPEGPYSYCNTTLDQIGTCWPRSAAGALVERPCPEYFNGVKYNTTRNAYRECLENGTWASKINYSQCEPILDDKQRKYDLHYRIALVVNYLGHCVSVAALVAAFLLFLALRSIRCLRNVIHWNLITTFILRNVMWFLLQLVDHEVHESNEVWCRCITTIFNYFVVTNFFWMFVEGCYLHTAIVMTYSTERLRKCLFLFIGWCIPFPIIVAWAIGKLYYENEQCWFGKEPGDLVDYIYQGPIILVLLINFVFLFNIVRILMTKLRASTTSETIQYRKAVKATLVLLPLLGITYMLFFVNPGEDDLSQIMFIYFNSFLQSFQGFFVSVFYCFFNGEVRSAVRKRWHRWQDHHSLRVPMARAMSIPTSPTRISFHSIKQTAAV
Experiment: cAMP functional assay for human CRHR2 (LANCE Ultra cAMP, TR-FRET)
Assay type: cell-based
Conditions: CHO-K1 cells expressing human CRHR2-alpha, agonist human urocortin2 at EC80, cAMP; read-out: IC50 against CRHR2
Method in brief: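 IC50 values derive from percent inhibition of EC80 agonist-stimulated cAMP in CHO-K1 transfectants, with 0.5 mM IBMX present; the CRHR2 line was stimulated by human urocortin2 and the CRHR1 line by CRF.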

| Compound | IC50 [nM] |
| --- | --- |
| Cc1ncc(Cl)cc1C(=O)N[C@H]1CC[C@H](Cn2c(=O)n(-c3ccc4c(c3)ncn4C)c3ccccc32)CC1 [Example 206, 5-chloro-2-methyl-N-((1r,4r)-4-((1′-methyl-2-oxo-1′H-[1,5′-bibenzo[d]imidazol]-3(2H)-yl)methyl)cyclohexyl)nico-tinamide] | < 300 |
| Cc1ncc(Cl)cc1C(=O)N[C@H]1CC[C@H](Cn2c(=O)n(-c3cnc4cccnc4c3)c3ccccc32)CC1 [Example 442, N-((1r,4r)-4-((3-(1,5-naph-thyridin-3-yl)-2-oxo-2,3-dihydro-1H-benzo[d]imidazol-1-yl)methyl)cyclo-hexyl)-5-chloro-2-methyl-nicotinamide] | < 300 |
| CN(C)c1cc(-n2c(=O)n(C[C@H]3CC[C@H](NC(=O)c4cc(Cl)cnc4C(F)(F)F)CC3)c3ccccc32)ccn1 [Example 663, 5-chloro-N-((1r,4r)-4-((3-(2-(dimethylamino)pyridin-4-yl)-2-oxo-2,3-dihydro-1H-benzo[d]imidazol-1-yl)methyl)cyclohexyl)-2-(trifluoromethyl)nicotinamide] | < 300 |
| Cc1ncc(Cl)cc1C(=O)N[C@H]1CC[C@H](Cn2c(=O)n(-c3ccc4c(C)nn(C)c4c3)c3ccccc32)CC1 [Example 191, 5-chloro-N-((1r,4r)-4-((3-(1,3-dimethyl-1H-indazol-6-yl)-2-oxo-2,3-dihydro-1H-benzo[d]imidazol-1-yl)methyl)cyclohexyl)-2-methylnicotinamide] | < 300 |
| Cc1ncc(Cl)cc1C(=O)N[C@H]1CC[C@H](Cn2c(=O)n(-c3ccc4c(c3)c(C)nn4C)c3ccccc32)CC1 [Example 213, 5-chloro-N-((1r,4r)-4-((3-(1,3-dimethyl-1H-indazol-5-yl)-2-oxo-2,3-dihydro-1H-benzo[d]imidazol-1-yl)methyl)cyclohexyl)-2-methylnicotinamide] | < 300 |
| Cc1ncc(Cl)cc1C(=O)N[C@H]1CC[C@H](Cn2c(=O)n(-c3ccc4ocnc4c3)c3ccccc32)CC1 [Example 264, N-((1r,4r)-4-((3-(benzo[d]oxazol-5-yl)-2-oxo-2,3-dihydro-1H-benzo[d]imidazol-1-yl)methyl)cyclo-hexyl)-5-chloro-2-methyl-nicotinamide] | < 300 |
| CCC(=O)Nc1ccc(-n2c(=O)n(C[C@H]3CC[C@H](NC(=O)c4cc(Cl)cnc4C)CC3)c3ccccc32)cn1 [Example 479, 5-chloro-2-methyl-N-((1r,4r)-4-((2-oxo-3-(6-propionamidopyridin-3-yl)-2,3-dihydro-1H-benzo[d]imidazol-1-yl)methyl)cyclohexyl)nicotinamide] | < 300 |
| COCCn1nnc2cc(-n3c(=O)n(C[C@H]4CC[C@H](NC(=O)c5cc(Cl)cnc5C)CC4)c4ccccc43)ccc21 [Example 294, 5-chloro-N-((1r,4r)-4-((3-(1-(2-methoxyethyl)-1H-benzo[d][1,2,3]triazol-5-yl)-2-oxo-2,3-dihydro-1H-benzo[d]imidazol-1-yl)methyl)cyclohexyl)-2-methylnicotinamide] | < 300 |
| Cc1ncc(Cl)cc1C(=O)N[C@H]1CC[C@H](Cn2c(=O)n(-c3cnc4c(N)ncnc4c3)c3ccccc32)CC1 [Example 319, N-((1r,4r)-4-((3-(4-aminopyrido[3,2-d]pyrimidin-7-yl)-2-oxo-2,3-dihydro-1H-benzo[d]imidazol-1-yl)methyl)cyclohexyl)-5-chloro-2-methylnicotinamide] | < 300 |
| Cc1ncc(Cl)cc1C(=O)N[C@H]1CC[C@H](Cn2c(=O)n(-c3cncc4ccccc34)c3ccccc32)CC1 [Example 338, 5-chloro-N-((1r,4r)-4-((3-(isoquinolin-4-yl)-2-oxo-2,3-dihydro-1H-benzo[d]imidazol-1-yl)methyl)cyclo-hexyl)-2-methylnicotinamide] | < 300 |
| CNC(=O)c1ccc(-n2c(=O)n(C[C@H]3CC[C@H](NC(=O)c4cc(Cl)ccc4OC(F)(F)F)CC3)c3ccccc32)cn1 [Example 531, 5-(3-(((1r,4r)-4-(5-chloro-2-(trifluoromethoxy)benzamido)cyclohexyl)methyl)-2-oxo-2,3-dihydro-1H-benzo[d]imidazol-1-yl)-N-methyl-picolinamide] | < 300 |

Reference: US11802120B2, “Fused cyclic urea derivatives as CRHR2 antagonist” (RaQualia Pharma Inc., priority 2018, dated 2023)
